Data: patent US20240109880A1 (Insilico Medicine IP Limited, priority 2021, published 2024)
In brackets after ≈: the same amount, converted by molar mass.

Key:
[1] = Kinetic solubility in 50 mM phosphate buffer (pH 7.4); format: physicochemical; conditions: for solubility kinetic at 24 h: aqueous buffer, kinetic from dmso stock, 50 mM phosphate buffer pH 7.4, 24 hours at room temperature
Protocol: 10 μL of 10 mM in DMSO of test and control compounds was added into lower chambers of whatman miniuniprep vials, respectively. 490 μL of 50 mM PB (pH 7.4) was added into lower chambers of the whatman miniuniprep vials, respectively. The solubility samples were vortexted for at least 2 minutes. The miniuniprep vials were shaken on a shaker for 24 hours at room temperature at the speed of 800 rpm and then centrifuged for 20 minutes (eg. 4000 rpm). The miniunipreps were compressed to prepare the filtrates for injection into HPLC system to calculate the concentration with standard curve.

[2] = Permeability in Caco-2 Assay; format: in vitro ADME; conditions: human, pH 7.4, 2 hours; for efflux ratio at 2 h, 2 μM: Caco-2, 2.00 μM bi-directionally; for Papp A→B at 2 h, 2 μM: Caco-2, 2.00 μM, pH 7.40
Protocol: (§1) Permeability of test compounds was determined in Caco-2 Assay. Caco-2 cells purchased from ATCC were seeded onto […] (PET) in 96-well Corning Insert plates at 1×10^5 cells/cm2, and refreshed medium every 4-5 days until to the 21st to 28th day for confluent cell monolayer formation. The transport buffer in the study was HBSS with 10.0 mM HEPES at pH 7.40±0.05. Test compound was tested at 2.00 μM bi-directionally in duplicate. Digoxin was tested at 10.0 μM bi-directionally in duplicate, while nadolol and metoprolol were tested at 2.00 μM in A to B direction in duplicate. Final DMSO concentration was adjusted to less than 1%. The plate was incubated for 2 hours in CO2 incubator at 37±1° C., with 5% CO2 at saturated humidity without shaking. And all samples after mixed with acetonitrile containing internal standard were centrifuged at 3200×g for 10 min. For nadolol and metoprolol, 200 μL supernatant solution was diluted with 600 μL ultra-pure water for LC-MS/MS analysis. For digoxin and test compounds, 200 μL supernatant solution was diluted with 200 μL ultra-pure water for LC-MS/MS analysis. Concentrations of test and control compounds in starting solution, donor solution, and receiver solution were quantified by LC-MS/MS methodologies, using peak area ratio of analyte/internal standard. After transport assay, lucifer yellow rejection assay was applied to determine the Caco-2 cell monolayer integrity.

KAT6A = KAT6A (Homo sapiens (Human), UniProt Q92794); assay: KAT6A Biochemical Assay (radiometric 384-well, [3H]-Ac-CoA, biotinylated H4(1-30) peptide); conditions: 5 nM KAT6A enzyme solution (2×), 60 min reaction at room temperature
Protocol: Inhibition of KAT6A enzymatic activity by test compounds was determined using a radiometric 384-well format assay. A 10-point serial dilution of the test compounds were conducted in DMSO and then a volume of 200 nL was transferred into 384-well assay plate by Echo (Labcyte). 10 μL of 2× enzyme solution (5 nM KAT6A (Active Motif) in assay buffer (50 mM Tris-HCl pH 8.0, 50 mM KCl, 0.1 mM EDTA, 5% glycerol, 1 mM DTT)) was dispensed into assay plate except for low control wells, in which 10 μL of assay buffer was transferred. The plate was incubated at room temperature for 15 min before addition of 10 μL of 2×[^3H]-acetyl coenzyme A (Ac-CoA) and substrate peptide mix solution (500 nM (KAT6A) [^3H]-Ac-CoA (PerkinElmer) and 800 nM (KAT6A) biotinylated H4(1-30) peptide (GL Biochem) in assay buffer) to each well to start reaction. The plate was incubated at room temperature for 60 min (KAT6A), and then the reaction was stopped by adding 10 μL of stop solution (cold Ac-CoA (Cayman) in 1× assay buffer). 25 μL of reaction in each well was transferred to Flashplate (PerkinElmer) and incubated for another 1 hour at room temperature. The plate was read on Microbeta and the inhibition percentage of each compound treated well was calculated based on the equation in h %=(Max−sample)/(Max−Min)*100 where Max is signal from high control wells with enzyme, and Min is signal from low control wells with assay buffer only. The in h % data were further fit in XL-Fit to obtain IC50 values using a 4-parameter logistic (4PL) sigmoidal curve model.

Caco-2 cells = assay: Permeability in Caco-2 Assay; format: in vitro ADME; conditions: comparison from Table 4 (vs compound 47 or vs PF-9363)
Protocol: as §1

KAT6A, sequence (Q92794 whole entry): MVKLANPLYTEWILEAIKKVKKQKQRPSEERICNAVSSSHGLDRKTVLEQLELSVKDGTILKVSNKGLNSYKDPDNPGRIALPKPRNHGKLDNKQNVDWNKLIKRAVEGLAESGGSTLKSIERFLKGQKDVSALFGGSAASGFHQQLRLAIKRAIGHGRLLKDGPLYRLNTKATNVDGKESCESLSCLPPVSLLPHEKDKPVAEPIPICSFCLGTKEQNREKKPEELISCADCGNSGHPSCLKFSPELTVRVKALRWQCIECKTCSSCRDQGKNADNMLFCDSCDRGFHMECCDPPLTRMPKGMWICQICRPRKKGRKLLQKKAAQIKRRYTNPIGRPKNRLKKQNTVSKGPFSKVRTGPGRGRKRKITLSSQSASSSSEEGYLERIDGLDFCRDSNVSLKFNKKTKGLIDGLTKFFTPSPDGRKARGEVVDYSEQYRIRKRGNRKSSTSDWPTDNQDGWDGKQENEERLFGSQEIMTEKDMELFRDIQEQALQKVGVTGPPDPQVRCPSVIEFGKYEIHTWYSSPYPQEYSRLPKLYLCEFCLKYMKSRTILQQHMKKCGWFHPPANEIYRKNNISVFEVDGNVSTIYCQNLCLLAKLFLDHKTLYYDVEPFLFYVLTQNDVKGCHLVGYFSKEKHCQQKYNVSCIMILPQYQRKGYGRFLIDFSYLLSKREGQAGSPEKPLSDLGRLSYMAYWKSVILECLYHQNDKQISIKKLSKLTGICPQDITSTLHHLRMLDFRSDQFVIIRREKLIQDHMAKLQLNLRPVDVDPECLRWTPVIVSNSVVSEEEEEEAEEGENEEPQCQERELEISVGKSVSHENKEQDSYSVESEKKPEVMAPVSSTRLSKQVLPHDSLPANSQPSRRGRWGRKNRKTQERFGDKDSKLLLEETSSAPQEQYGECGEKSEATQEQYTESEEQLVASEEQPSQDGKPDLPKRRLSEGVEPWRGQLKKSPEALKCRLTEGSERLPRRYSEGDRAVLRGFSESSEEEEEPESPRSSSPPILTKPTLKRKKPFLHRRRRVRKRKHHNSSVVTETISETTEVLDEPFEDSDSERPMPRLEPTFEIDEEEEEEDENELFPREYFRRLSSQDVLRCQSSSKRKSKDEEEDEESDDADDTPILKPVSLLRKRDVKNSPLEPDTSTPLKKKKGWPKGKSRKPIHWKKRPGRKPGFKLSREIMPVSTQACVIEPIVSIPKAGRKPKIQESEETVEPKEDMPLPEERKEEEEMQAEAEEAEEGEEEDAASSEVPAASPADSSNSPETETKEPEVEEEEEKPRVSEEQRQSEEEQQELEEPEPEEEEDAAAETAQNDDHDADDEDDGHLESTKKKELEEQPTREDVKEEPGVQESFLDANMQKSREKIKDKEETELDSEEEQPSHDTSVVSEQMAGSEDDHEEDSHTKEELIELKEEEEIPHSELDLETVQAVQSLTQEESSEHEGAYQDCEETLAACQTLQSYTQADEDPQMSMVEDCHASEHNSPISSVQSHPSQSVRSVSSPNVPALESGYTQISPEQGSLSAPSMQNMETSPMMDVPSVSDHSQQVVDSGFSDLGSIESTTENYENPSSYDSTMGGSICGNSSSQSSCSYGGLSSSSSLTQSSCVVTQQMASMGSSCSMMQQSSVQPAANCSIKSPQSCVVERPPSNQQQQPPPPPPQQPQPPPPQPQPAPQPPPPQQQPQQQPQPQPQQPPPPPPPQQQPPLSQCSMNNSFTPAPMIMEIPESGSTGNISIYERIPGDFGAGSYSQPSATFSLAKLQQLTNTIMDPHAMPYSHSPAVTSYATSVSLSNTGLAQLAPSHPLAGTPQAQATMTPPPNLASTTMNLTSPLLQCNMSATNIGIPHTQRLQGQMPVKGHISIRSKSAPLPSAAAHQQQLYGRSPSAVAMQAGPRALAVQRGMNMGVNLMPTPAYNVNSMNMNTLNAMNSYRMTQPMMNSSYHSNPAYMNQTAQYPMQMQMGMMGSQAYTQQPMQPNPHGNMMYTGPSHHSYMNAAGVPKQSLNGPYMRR

Row | solubility kinetic at 24 h [1] | efflux ratio at 2 h, 2 μM [2] | Papp A→B at 2 h, 2 μM [2] | IC50 (KAT6A) | Structure (SMILES) | kinetic solubility compared with the otherwise identical compound having X group as carbon ([1]; comparison from Table 3) | permeability compared with a reference compound (Caco-2 cells)
1 | 12.1 µM (≈ 5.9 µg/mL) | 12.3 | 3.53 ×10⁻⁶ cm/s | < 10 nM | COc1cccc(OC)c1S(=O)(=O)Nc1noc2cc(Cc3nccs3)c3c(c12)OCCC3 [Compound 47] |  | 
2 | 3.34 µM (≈ 1.61 µg/mL) | 15.3 | 2.66 ×10⁻⁶ cm/s | < 10 nM | COc1cccc(OC)c1S(=O)(=O)Nc1noc2cc(Cc3ccccn3)c3c(c12)OCCC3 [Compound 46, 2,6-dimethoxy-N-(5-(pyridin-2-ylmethyl)-3,4-dihydro-2H-chromeno[8,7-d]isoxazol-9-yl)benzenesulfonamide] |  | 
3 | 16.1 µM (≈ 7.58 µg/mL) | 59.6 | 0.439 ×10⁻⁶ cm/s | < 10 nM | COc1cccc(OC)c1S(=O)(=O)Nc1noc2cc(Cn3cccn3)c3c(c12)OCCC3 [Compound 14, N-(5-((1H-pyrazol-1-yl)methyl)-3,4-dihydro-2H-chromeno [8,7-d]isoxazol-9-yl)-2,6-dimethoxybenzenesulfonamide] |  | 
4 |  | 1.33 | 13.7 ×10⁻⁶ cm/s | < 10 nM | COc1ccccc1S(=O)(=O)Nc1noc2cc(Oc3nccs3)cc(OC)c12 [Compound 60, 2-methoxy-N-(4-methoxy-6-(thiazol-2-yloxy)benzo[d]isoxazol-3-yl)benzenesulfonamide] |  | 
5 |  | 2.88 | 6.48 ×10⁻⁶ cm/s | < 10 nM | COc1ccccc1S(=O)(=O)Nc1noc2cc(Oc3nccs3)c3c(c12)OCCCC3 [Compound 63] |  | 
6 |  |  | 3.38 ×10⁻⁶ cm/s | < 10 nM | COc1cc(C)nc(OC)c1S(=O)(=O)Nc1noc2cc(Oc3nccs3)cc(OC)c12 [Compound 57, 2,4-dimethoxy-N-(4-methoxy-6-(thiazol-2-yloxy)benzo[d]isoxazol-3-yl)-6-methylpyridine-3-sulfonamide] |  | 
7 |  | 2.82 | 9 ×10⁻⁶ cm/s | < 10 nM | COc1cc(C)nc(OC)c1S(=O)(=O)Nc1noc2cc(Oc3nccs3)c3c(c12)OCCCC3 [Compound 64] |  | 

Row | Structure (SMILES) | solubility kinetic at 24 h [1] | efflux ratio at 2 h, 2 μM [2] | Papp A→B at 2 h, 2 μM [2] | IC50 (KAT6A) | kinetic solubility compared with the otherwise identical compound having X group as carbon ([1]; comparison from Table 3) | permeability compared with a reference compound (Caco-2 cells)
8 | COc1cccc(OC)c1S(=O)(=O)Nc1noc2cc(Oc3nccs3)c3c(c12)OCCC3 [Compound 35, 2,6-dimethoxy-N-(5-(thiazol-2-yloxy)-3,4-dihydro-2H-chromeno[8,7-d]isoxazol-9-yl)benzenesulfonamide] | 165 µM (≈ 80.8 µg/mL) |  | 8.59 ×10⁻⁶ cm/s | < 10 nM | improved kinetic solubility | improved permeability
9 | COc1cccc(OC)c1S(=O)(=O)Nc1noc2cc(Oc3ccccn3)c3c(c12)OCCC3 [Compound 24, 2,6-dimethoxy-N-(5-(pyridin-2-yloxy)-3,4-dihydro-2H-chromeno[8,7-d]isoxazol-9-yl)benzenesulfonamide] | 189 µM (≈ 91.4 µg/mL) | 3.2 | 12.9 ×10⁻⁶ cm/s | < 10 nM |  | 
10 | COc1ccnc(OC)c1S(=O)(=O)Nc1noc2cc(Oc3ccccn3)c3c(c12)OCCC3 [Compound 28, 2,4-dimethoxy-N-(5-(pyridin-2-yloxy)-3,4-dihydro-2H-chromeno[8,7-d]isoxazol-9-yl)pyridine-3-sulfonamide] |  | 9.58 | 2.38 ×10⁻⁶ cm/s | 10 to 100 nM |  | 
